The conditions of experiment [1]: acute thermal, persistent, inflammatory, neuropathic pain models; cited from earlier work.
Experiment [2] deals with T1, rat CB2 (Rattus norvegicus (Rat), UniProt Q9QZN9). Put plainly: CB2 cyclase functional assay (HitHunter cAMP). The experiment is classed as cell-based. The following applies: HEK cells, forskolin 18 μM. As to the method:
(§1) The cyclase functional assays were performed using the HitHunter™ cAMP assay kit from DiscoveRx (Fremont, Calif.) according to vendor's protocol. Briefly, HEK cells expressing CB2 or CB1 receptors (rat or human) were detached using cell dissociation buffer (Invitrogen, Carlsbad, Calif.), dispersed and placed in suspension at 10,000 cells per well in 96 well plates prior to the assay. Cell suspensions were incubated at 37° C. for 20 min with variable concentrations of test ligands and or 10 μM CP 55,940-positive control in the presence of a fixed concentration of forskolin (18 μM for rat CB2 and 37 μM for rat CB1) in Dulbescco's phosphate-buffered saline (Invitrogen, Carlsbad, Calif.) supplemented with bovine serum albumin (0.01% final concentration). The reactions were terminated by the addition of lysis buffer and the luminescence was detected following the procedure according to the manufacturer's instructions. EC50 values were calculated using sigmoidal dose-response curve fitting from Prism (GraphPad).

The target in the next experiment is human CB2 receptors (Homo sapiens (Human), UniProt P34972). Kind of experiment: human CB2 radioligand binding assay ([3H]CP 55,940 competition). The following applies: HEK293 membranes, 0.5 nM [3H]CP 55,940; read-out: human CB2 (Ki). In a few lines:
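Membranes from HEK293 cells stably expressing human CB2 (5 μg protein/well) competed against 0.5 nM [3H]CP 55,940 with five concentrations of test ligand (0.01 nM to 10 μM), pH 7.4 Tris buffer with BSA, 90 min at 30 °C. Filtration and scintillation counting; nonspecific binding with 10 μM unlabeled CP 55,940.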

The target in a further experiment is rat CB1 (Rattus norvegicus (Rat), UniProt P20272). Put plainly: CB1 cyclase functional assay (HitHunter cAMP). The following applies: HEK cells, forskolin 37 μM; read-out: rCB1 cyclase (EC50). The experiment is classed as cell-based. How it is done: as §1
Experiment [3] deals with T1, rat CB2. Kind of experiment: rat CB2 radioligand binding assay ([3H]CP 55,940 competition). The following applies: HEK293 membranes, 0.5 nM [3H]CP 55,940; read-out: rat CB2 (Ki). In a few lines:
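Membranes from HEK293 cells stably expressing rat CB2 (20 μg protein/well) competed with 0.5 nM [3H]CP 55,940 and five displacer concentrations, 45 min at 30° C in Tris/EDTA/MgCl2/BSA buffer pH 7.4. Filtration and scintillation counting; nonspecific binding with 10 μM unlabeled CP 55,940.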

For experiment [4] the following is noted: neuropathic, incisional, chronic and acute inflammatory pain; cited from earlier work.
The test system of the next experiment is rat. As to conditions: rat formalin model; cited from earlier work.
The test system of experiment [5] is β-amyloid-induced microglial activation. The following applies: in vitro; cited from earlier work.
The subject of experiment [6] is apolipoprotein E knockout mice. The following applies: low doses; cited from earlier work.
A further experiment deals with mice. As to conditions: cited from earlier work.

T1 sequence (Q9QZN9 whole entry): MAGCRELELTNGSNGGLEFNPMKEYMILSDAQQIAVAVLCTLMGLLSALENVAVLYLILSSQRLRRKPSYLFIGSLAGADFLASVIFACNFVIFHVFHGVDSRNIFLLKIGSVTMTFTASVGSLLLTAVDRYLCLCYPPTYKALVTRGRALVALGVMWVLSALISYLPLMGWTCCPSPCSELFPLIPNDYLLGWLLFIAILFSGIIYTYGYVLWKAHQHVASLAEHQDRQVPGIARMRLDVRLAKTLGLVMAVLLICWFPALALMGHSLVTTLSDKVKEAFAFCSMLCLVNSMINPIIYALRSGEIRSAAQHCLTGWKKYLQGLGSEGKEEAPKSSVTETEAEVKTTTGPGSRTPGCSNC
Chain of human CB2 receptors (P34972 whole entry): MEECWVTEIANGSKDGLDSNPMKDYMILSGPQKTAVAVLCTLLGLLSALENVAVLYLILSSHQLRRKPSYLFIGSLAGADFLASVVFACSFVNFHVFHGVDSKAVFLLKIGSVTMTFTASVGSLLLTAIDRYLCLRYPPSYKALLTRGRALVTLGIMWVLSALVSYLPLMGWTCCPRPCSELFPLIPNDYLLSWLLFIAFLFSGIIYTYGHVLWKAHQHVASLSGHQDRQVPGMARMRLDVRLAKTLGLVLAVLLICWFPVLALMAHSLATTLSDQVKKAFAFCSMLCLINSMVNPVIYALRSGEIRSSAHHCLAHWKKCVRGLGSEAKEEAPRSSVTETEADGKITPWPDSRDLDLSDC

For the compound `CN1CCCCC1Cn1cc(C(=O)c2cc([N+](=O)[O-])ccc2I)c2ccccc21` (stereo not shown) [AM-1241], the analgesic efficacy entry in [1] is listed as “robust analgesic efficacy”.

Usually EC50 stands for the concentration giving half of the maximal effect. A word on the Ki: it is the equilibrium dissociation constant of an inhibitor or competing ligand from its target. Regarding `CC(C)(C)NOc1ccc(C(F)(F)F)cc1C(=O)/N=c1\sc(C(C)(C)C)nn1CCCC#N` [Example 151, 2-[(tert-butylamino)oxy]-N-[(2Z)-5-tert-butyl-3-(3-cyanopropyl)-1,3,4-thiadiazol-2(3H)-ylidene]-5-(trifluoromethyl)benzamide], the EC50 on rat CB2 [2] was found to be 0.13 nM; on rat CB1 it was 938 nM. The Ki at human CB2 receptors is 4.3 nM; on rat CB2 [3] it was 1.2 nM.

On to `CC(C)(C)NOc1ccc(C(F)(F)F)cc1C(=O)/N=c1\sc(C(C)(C)C)nn1C[C@H]1CCCO1` [Example 153, 2-[(tert-butylamino)oxy]-N-[(2Z)-5-tert-butyl-3-[(2R)-tetrahydrofuran-2-ylmethyl]-1,3,4-thiadiazol-2(3H)-ylidene]-5-(trifluoromethyl)benzamide], for which the figures for the half-maximal effective concentration (EC50) at rat CB2 [2] and on rat CB1 were 0.24 nM and > 27000 nM, respectively. In addition, the Ki was found to be 10 nM at human CB2 receptors and 3.2 nM on rat CB2 [3].

For `CCCCn1nc(C(C)(C)C)s/c1=N\C(=O)c1cc(C(F)(F)F)ccc1ONC(C)=O` [Example 154, 2-[(acetylamino)oxy]-N-[(2Z)-3-butyl-5-tert-butyl-1,3,4-thiadiazol-2(3H)-ylidene]-5-(trifluoromethyl)benzamide], the concentration giving a half-maximal response (EC50) on rat CB2 [2] is 1.5 nM; on rat CB1, 58 nM. The inhibitory constant (Ki) on human CB2 receptors and at rat CB2 [3] was 1 nM throughout.

Turning to `CC(C)(C)NOc1ccc(C(F)(F)F)cc1C(=O)/N=c1\sc(C(C)(C)C)nn1CCCC(F)(F)F` [Example 164, 2-[(tert-butylamino)oxy]-N-[(2Z)-5-tert-butyl-3-(4,4,4-trifluorobutyl)-1,3,4-thiadiazol-2(3H)-ylidene]-5-(trifluoromethyl)benzamide], the figures for the concentration giving a half-maximal response (EC50) at rat CB2 [2] and at rat CB1 were 0.28 nM and 1020 nM, respectively. For the same compound, the inhibition constant (Ki) on human CB2 receptors was determined as 1.8 nM; on rat CB2 [3], 0.3 nM.

Consider `CC(C)(C)NOc1ccc(C(F)(F)F)cc1C(=O)/N=c1\sc(C(C)(C)C)nn1CC1CCC1` [Example 165, 2-[(tert-butylamino)oxy]-N-[(2Z)-5-tert-butyl-3-(cyclobutylmethyl)-1,3,4-thiadiazol-2(3H)-ylidene]-5-(trifluoromethyl)benzamide], for which the concentration for a half-maximal effect (EC50) came out at 0.93 nM at rat CB2 [2] and 925 nM at rat CB1. Also, the Ki at human CB2 receptors worked out at 2.8 nM; on rat CB2 [3], 0.8 nM.

Regarding `CCCCn1nc(C(C)(C)C)s/c1=N\C(=O)c1cc(C(F)(F)F)ccc1ON=C(N)C(C)(C)C` [Example 166, 2-({[1-amino-2,2-dimethylpropylidene]amino}oxy)-N-[(2Z)-3-butyl-5-tert-butyl-1,3,4-thiadiazol-2(3H)-ylidene]-5-(trifluoromethyl)benzamide], the EC50 on rat CB2 [2] is 3.14 nM; at rat CB1, 6960 nM. Further, the results for the Ki on human CB2 receptors and at rat CB2 [3] were 65 nM and 43 nM, respectively.

`CCCCn1nc(C(C)(C)C)s/c1=N\C(=O)c1cc(C(F)(F)F)ccc1ON=C(C)C(F)(F)F` [Example 172, N-[(2Z)-3-butyl-5-tert-butyl-1,3,4-thiadiazol-2(3H)-ylidene]-5-(trifluoromethyl)-2-({[2,2,2-trifluoro-1-methylethylidene]amino}oxy)benzamide]: the EC50 at rat CB2 [2] was 28 nM; on rat CB1 it was > 27000 nM. Moreover, the Ki stood at 52 nM on human CB2 receptors and 60 nM at rat CB2 [3].

`COc1ccc2c(c1)c(CCN1CCOCC1)c(C)n2C(=O)c1cccc(Cl)c1Cl` [GW405833]: the “efficacy in pain models” value in experiment [4] is recorded as “efficacious”.

With `CCCCCCC(C)(C)c1cc(OC)c([C@@H]2C=C(CO)[C@@H]3C[C@H]2C3(C)C)c(OC)c1` [HU-308], the antinociceptive response result in the experiment on rat was “elicits an antinociceptive response”.

In the case of `CCCC(C)(C)c1ccc2c(c1)OC(C)(C)[C@@H]1CC=C(C)C[C@@H]21` [JWH-133], the “effect on β-amyloid-induced microglial activation and neurotoxicity” value in experiment [5] is “abrogated β-amyloid-induced microglial activation and neurotoxicity”.

In the case of (−)-Δ^9-Tetrahydrocannabinol [THC], the “effect on progression of atherosclerotic lesions” value in [6] is given as “slowed the progression of atherosclerotic lesions”.

As to SR144528, the “effect on osteoclast activity and ovariectomy-induced bone loss” value in the experiment on mice was “inhibit osteoclast activity and reverse ovariectomy-induced bone loss”.

The record behind these values is patent US8859596B2, “Compounds as cannabinoid receptor ligands” (priority 2008, dated 2014).
